molecular target: T1, human recombinant GPR65 (Homo sapiens, UniProt Q8IYL9); assay: Human GPR65 cAMP HTRF antagonist assay; type: cell-based; details: not given
T1 construct: host or cells: 1321N1 human astrocytoma cells (1321N1-hrGPR65)
Method in brief: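 1321N1 astrocytoma cells stably expressing GPR65 were preincubated with compound for 30 min at room temperature in KRH pH 7.6 with 1 mM IBMX and 200 μM EDTA. They were then stimulated at assay pH 7.2 for 30 min, with controls at pH 7.9. cAMP was read by HTRF (665/620 nm), normalised to controls and fitted by 4-parameter logistic to give IC50.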

T1 sequence (Q8IYL9 whole entry): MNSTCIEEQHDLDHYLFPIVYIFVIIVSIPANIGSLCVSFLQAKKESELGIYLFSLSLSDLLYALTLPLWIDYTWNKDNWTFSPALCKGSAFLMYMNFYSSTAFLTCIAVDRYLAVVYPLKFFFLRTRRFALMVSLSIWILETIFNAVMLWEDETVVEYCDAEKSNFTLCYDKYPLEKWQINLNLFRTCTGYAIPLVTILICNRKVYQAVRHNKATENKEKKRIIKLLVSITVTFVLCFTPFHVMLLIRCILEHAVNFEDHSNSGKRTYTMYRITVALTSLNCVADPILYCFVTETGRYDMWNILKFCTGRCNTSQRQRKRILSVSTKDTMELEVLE

Row | Structure (SMILES) | IC50 [nM]
1 | O=C(Nc1ccc(C(F)(F)F)c(Cl)c1)N1[C@H]2CC[C@@H]1c1cncnc1C2 [Compound 38, (5R,8S)-N-(3-Chloro-4-(trifluoromethyl)phenyl)-6,7,8,9-tetrahydro-5H-5,8-epiminocyclohepta[d]pyrimidine-10-carboxamide] | < 500
2 | O=C(Nc1cc(Br)c(C(F)(F)F)cc1F)N1[C@H]2CC[C@@H]1c1ccnc(F)c1C2 [Compound 180, (5R,8S)-N-(5-Bromo-2-fluoro-4-(trifluoromethyl)phenyl)-1-fluoro-6,7,8,9-tetrahydro-5H-5,8-epiminocyclohepta[c]pyridine-10-carboxamide] | < 500
3 | O=C(Nc1cc(Cl)c(Cl)c(Cl)c1)N1C2CCC1c1ccnc(F)c1C2 (racemic) [Compound 166, (±)-1-Fluoro-N-(3,4,5-trichlorophenyl)-6,7,8,9-tetrahydro-5H-5,8-epiminocyclohepta[c]pyridine-10-carboxamide] | < 500
4 | O=C(Nc1ccc(C(F)(F)F)c(Br)c1)N1[C@H]2CC[C@@H]1c1ccnc(F)c1C2 [Compound 153, (5R,8S)-N-(3-Bromo-4-(trifluoromethyl)phenyl)-1-fluoro-6,7,8,9-tetrahydro-5H-5,8-epiminocyclohepta[c]pyridine-10-carboxamide] | < 500
5 | O=C(Nc1ccc(Cl)c(Cl)c1)N1C2CCC1c1cnc(=O)[nH]c1C2 (racemic) [Compound 31, (±)-N-(3,4-Dichlorophenyl)-2-oxo-2,5,6,7,8,9-hexahydro-1H-5,8-epiminocyclohepta[d]pyrimidine-10-carboxamide] | < 500
6 | O=C(Nc1ccc(Cl)c(Br)c1)N1[C@H]2CC[C@@H]1c1c[nH]c(=O)cc1C2 [Compound 145, (6S,9R)-N-(3-Bromo-4-chlorophenyl)-3-oxo-3,5,6,7,8,9-hexahydro-2H-6.9-epiminocyclohepta[c]pyridine-10-carboxamide] | < 500
7 | O=C(Nc1ccc(Cl)c(Cl)c1)N1[C@@H]2CC[C@H]1[C@@H](F)c1cc(F)ncc12 [Compound 140, (5S,6S,9R)-N-(3,4-Dichlorophenyl)-3,5-difluoro-6,7,8,9-tetrahydro-5H-6,9-epiminocyclohepta[c]pyridine-10-carboxamide] | < 500

same assay, conditions: 1321N1-hrGPR65 cells, assay pH 7.2, cAMP HTRF; read-out: hGPR65 IC50 (activity class)

Row | Structure (SMILES) | IC50 [nM]
8 | O=C(Nc1ccc(Cl)c(Cl)c1)N1C2CCC1C(F)c1ncncc12 (racemic) [Compound 113, Cis-(±)-N-(3,4-Dichlorophenyl)-9-fluoro-6,7,8,9-tetrahydro-5H-5,8-epiminocyclohepta[d]pyrimidine-10-carboxamide] | 500 to 5000
9 | O=C(Nc1cc(Cl)c(Cl)cc1F)N1C2CCC1c1cnncc1C2 (racemic) [Compound 193, (±)-N-(4,5-Dichloro-2-fluorophenyl)-6,7,8,9-tetrahydro-5H-5,8-epiminocyclohepta[d]pyridazine-10-carboxamide] | 500 to 5000
10 | Nc1cc2c(cn1)CC1CCC2N1C(=O)Nc1ccc(Cl)c(Cl)c1 (racemic) [Compound 64, (±)-3-Amino-N-(3,4-dichlorophenyl)-6,7,8,9-tetrahydro-5H-5,8-epiminocyclohepta[c]pyridine-10-carboxamide] | 500 to 5000
11 | O=C(Nc1ccc(C(F)(F)F)c(Cl)c1)N1C2CCC1c1cccc(F)c1C2 (racemic) [Compound 84, (±)-N-(3-Chloro-4-(trifluoromethyl)phenyl)-1-fluoro-6,7,8,9-tetrahydro-5H-5,8-epiminobenzo[7]annulene-10-carboxamide] | 500 to 5000
12 | O=C(Nc1cc(Cl)c(Cl)cc1F)N1[C@H]2CC[C@@H]1c1ccnc(C(F)(F)F)c1C2 [Compound 200, (5R,8S)-N-(4,5-dichloro-2-fluorophenyl)-1-(trifluoromethyl)-6,7,8,9-tetrahydro-5H-5,8-epiminocyclohepta[c]pyridine-10-carboxamide] | 500 to 5000
13 | O=C(Nc1ccc(F)c(Cl)c1F)N1C2CCC1c1ccnc(F)c1C2 (racemic) [Compound 154, (±)-N-(3-Chloro-2,4-difluorophenyl)-1-fluoro-6,7,8,9-tetrahydro-5H-5,8-epiminocyclohepta[c]pyridine-10-carboxamide] | 500 to 5000

— patent US20230373989A1, “N-PHENYLAMINOCARBONYL PYRIDINO-, PYRIMIDINO AND BENZO-TROPANES AS MODULATORS OF GPR65” (PATHIOS THERAPEUTICS LIMITED, priority 2020, published 2023)
